This is an account of results in patent US20250332112A1, “IONIZABLE CATIONIC LIPIDS FOR LIPID NANOPARTICLES” (GENEVANT SCIENCES GMBH, priority 2022, published 2025).

The nature of data set [1]: Particle characteristics of LNPs containing EGFP mRNA and novel ionizable lipids. Type of data set: physicochemical. Conditions: EGFP mRNA LNP 1.6:54.6:32.8:10.9. The protocol:
The lipid solution contains 4 components: a PEG-conjugated lipid, an ionizable lipid, cholesterol, and a phospholipid (e.g., DSPC). Lipid stocks were prepared using the lipid identities and molar ratios as described, to achieve a total concentration of ˜7 mg/mL in 100% ethanol. […] Equal volumes of the lipid and nucleic acid solutions were blended at a flow rate of 400 mL/min through a T-connector, and diluted with ˜4 volumes of PBS, pH 7.4. Formulations were placed in Slide-A-Lyzer dialysis units (MWCO 10,000) and dialyzed overnight against 10 mM Tris, 500 mM NaCl, pH 8 buffer. Following dialysis, the formulations were concentrated to ˜0.6 mg/mL using VivaSpin concentrator units (MWCO 100,000) and dialyzed overnight against 5 mM Tris, 10% sucrose, pH 8 buffer. Formulations were filtered through a 0.2 μm syringe filter (PES membrane). Nucleic acid concentration was determined by the RiboGreen assay. Particle size and polydispersity were determined using a Malvern Nano Series Zetasizer.
LNP formulations containing novel ionizable lipids all produced stable particles with high encapsulation efficiency (Tables 20-23).

Data set [2] is described as follows: Parent ionizable lipid remaining in liver at 24 h after EGFP mRNA LNP (LC-MS). Type of data set: in vivo. The conditions noted are these: 24 h after IV 0.5 mg/kg EGFP mRNA LNP, female BALB/c mice (n = 4). The protocol: Liver tissues were treated with PBS and homogenized with a FastPrep machine, 3 cycles of 5 m/s×15 s. Homogenates from the PBS-treated control animals was pooled and used for standard curve preparation. Samples were extracted into a deep well plate with 250 μL of an internal suitability standard. Plates were centrifuged for 15 min at 4° C. and 2000 rpm. Analysis was performed using an Agilent 6520 QTOF coupled to an Agilent 1290 UHPLC, using reverse-phase LC separation. Quantitation of the ionizable lipid was by MS/MS against a calibration curve spiked into appropriately matched blank matrix. Calibration used a similar class of synthetic lipid as internal standard.
At 24 h post-dose, some treatment groups reported lower levels of novel ionizable lipid in mouse liver compared to the benchmark (Tables 28-31).

The test system of data set [3] is EGFP expression in the liver. In words: EGFP expression in liver after intravenous EGFP mRNA LNP (ELISA). Conditions: 0.5 mg/kg IV, 24 h post-IV administration, BALB/c mice (n = 4). On the technique in general: An ELISA detects its analyte on a solid surface through an enzyme-linked reagent.
Method: LNP formulations encapsulating enhanced green fluorescent protein mRNA were injected intravenously at 0.5 mg/kg to female BALB/c mice (6-8 weeks old). On day of injection, the LNP stocks were filtered and diluted to the required dosing concentration with phosphate buffered saline. At 24 hours post-administration, animals were anaesthetized with a lethal dosage of ketamine/xylazine. Liver samples (left lateral lobe) were collected, weighed, and flash frozen in liquid nitrogen. Liver samples were stored in FastPrep® tubes at −80° C. until analyzed for EGFP expression.
Liver homogenates were prepared in cell extraction buffer, diluted, and analyzed for EGFP protein levels using ELISA, according to manufacturer's instructions (Abcam, GFP ELISA Kit).

In the case of `CCCCCCCCCCC(CCCCCCC(=O)OCC(CCCCCC)CCCCCCCC)N(CCCCCCCCCC)C(=O)CCN(C)C` (stereo not shown) [Compound 107, 2-Hexyldecyl 8-(N-decyl-3-(dimethylamino)propanamido)octadecanoate], in data set [1] (Table 22), the “Final Product % EE” value amounted to 98%, the “Final Product PDI” value was 0.06 and the “Final Product Z-avg” value is recorded as 76 nm. Further, the “Parent ionizable lipid remaining in liver, Average” value (from here on “Parent ionizable lipid remaining”) in data set [2] (Table 30) is listed as 28.74 nmol/g liver. The EGFP in data set [3] (Table 26) was 3.66E+07 pg/g liver.
Consider `CCCCCCCCCCN(C(=O)CCCN(C)C)C(CCCCCCCCC)CCCCC(F)(F)C(=O)OC(CCCCC)CCCCC` (stereo not shown) [Compound 108, Undecan-6-yl 7-(N-decyl-4-(dimethylamino)butanamido)-2,2-difluorohexadecanoate], for which, in data set [1] (Table 22), the “Final Product % EE” value is on record as 95%, the “Final Product PDI” value is reported as 0.07 and the “Final Product Z-avg” value is 80 nm. Further, the “Parent ionizable lipid remaining” value in data set [2] (Table 30) came out at 3.86 nmol/g liver. In addition, the EGFP in data set [3] (Table 26) is reported as 5.41E+07 pg/g liver.
On to `CCCCCCCCCCN(C(=O)CCCN(C)C)C(CCCCCCCCC)CCCCC(F)(F)C(=O)OC(CCCCCCCC)CCCCCCCC` (stereo not shown) [Compound 110, Heptadecan-9-yl 7-(N-decyl-4-(dimethylamino)butanamido)-2,2-difluorohexadecanoate], for which, in data set [1] (Table 22), the “Final Product % EE” value was determined as 98%, the “Final Product PDI” value worked out at 0.11 and the “Final Product Z-avg” value worked out at 67 nm. Further, in data set [2] (Table 30), the “Parent ionizable lipid remaining” value turned out to be 33.07 nmol/g liver. In data set [3] (Table 26), this molecule came in with an EGFP of 4.01E+07 pg/g liver.
Taken in the same sequence, the figures for `CCCCCCCCCCN(C(=O)CCCN(C)C)C(CCCCCCCCC)CCCCCCC(F)C(=O)OC(CCCCC)CCCCC` (stereo not shown) [Compound 112, Undecan-6-yl 9-(N-decyl-4-(dimethylamino)butanamido)-2-fluorooctadecanoate] were 95%, 0.08, 82 nm, 1.73 nmol/g liver and 4.78E+07 pg/g liver.
For `CCCCCCCCCCN(C(=O)CCCN(C)C)C(CCCCCCCCC)CCCCCCC(F)C(=O)OC(CCCCCC)CCCCCC` (stereo not shown) [Compound 113, Tridecan-7-yl 9-(N-decyl-4-(dimethylamino)butanamido)-2-fluorooctadecanoate] the same measures were 98%, 0.05, 72 nm, 4.68 nmol/g liver and 3.45E+07 pg/g liver.
For `CCCCCCCCCCN(C(=O)CCCN(C)C)C(CCCCCCCCC)CCCCCCC(F)C(=O)OC(CCCCCCC)CCCCCCC` (stereo not shown) [Compound 114, Pentadecan-8-yl 9-(N-decyl-4-(dimethylamino)butanamido)-2-fluorooctadecanoate] the same measures were 98%, 0.08, 73 nm, 12.79 nmol/g liver and 4.29E+07 pg/g liver.
Take `CCCCCCCCCCC(CCCCCCC(=O)OC(CCCCCC)CCCCCC)N(CCCCCCC(F)(F)C(=O)OC(CCCCCC)CCCCCC)C(=O)CCCN(C)C` (stereo not shown) [Compound 116, Tridecan-7-yl 8-(N-(7,7-difluoro-8-oxo-8-(tridecan-7-yloxy)octyl)-4-(dimethylamino)-butanamido)octadecanoate]: in data set [1] (Table 22), the “Final Product % EE” value is on record as 98%, the “Final Product PDI” value came out at 0.09 and the “Final Product Z-avg” value was determined as 75 nm. The “Parent ionizable lipid remaining” value in data set [2] (Table 30) is recorded as 60.05 nmol/g liver. The molecule also returned an EGFP in data set [3] (Table 26) of 2.93E+07 pg/g liver.
For `CCCCCCCCCCC(CCCCCCC(=O)OC(CCCCCCC)CCCCCCC)N(CCCCCCC(F)(F)C(=O)OC(CCCCCCC)CCCCCCC)C(=O)CCCN(C)C` (stereo not shown) [Compound 117, Pentadecan-8-yl 8-(N-(7,7-difluoro-8-oxo-8-(pentadecan-8-yloxy)octyl)-4-(dimethylamino)butanamido)octadecanoate] the same measures were 99%, 0.06, 80 nm, 49.53 nmol/g liver and 3.15E+07 pg/g liver.
Consider `CCCCCCCCCCC(CCCCCCC(=O)OC(CCCCCCCC)CCCCCCCC)N(CCCCCCC(F)(F)C(=O)OC(CCCCCCCC)CCCCCCCC)C(=O)CCCN(C)C` (stereo not shown) [Compound 118, Heptadecan-9-yl 8-(N-(7,7-difluoro-8-(heptadecan-9-yloxy)-8-oxooctyl)-4-(dimethylamino)butanamido)octadecanoate], for which, in data set [1] (Table 22), the “Final Product % EE” value was found to be 98%, the “Final Product PDI” value turned out to be 0.06 and the “Final Product Z-avg” value stood at 83 nm. The “Parent ionizable lipid remaining” value in data set [2] (Table 30) was found to be 62.81 nmol/g liver. In data set [3] (Table 26), this molecule returned an EGFP of 1.86E+07 pg/g liver.
Regarding `CCCCCCCCCCC(CCCCCCCC(=O)OCC(CCCCCC)CCCCCCCC)N(CCCCCCCCCC)C(=O)CCN(C)C` (stereo not shown) [Compound 119, 2-Hexyldecyl 9-(N-decyl-3-(dimethylamino)propanamido)nonadecanoate], in data set [1] (Table 22), the “Final Product % EE” value came to 97%, the “Final Product PDI” value turned out to be 0.09 and the “Final Product Z-avg” value was determined as 73 nm. Moreover, in data set [2] (Table 30), the “Parent ionizable lipid remaining” value turned out to be 25.25 nmol/g liver. The molecule also showed an EGFP in data set [3] (Table 26) of 1.60E+07 pg/g liver.
As for `CCCCCCCCCCN(C(=O)CCCN(C)C)C(CCCCCCCCC)CCCCC(F)C(=O)OCC(CCCCCC)CCCCCCCC` (stereo not shown) [Compound 120, 2-Hexyldecyl 7-(N-decyl-4-(dimethylamino)butanamido)-2-fluorohexadecanoate], in data set [1] (Table 23), the “Final Product % EE” value is 99%, the “Final Product PDI” value is given as 0.15 and the “Final Product Z-avg” value was 69 nm. Moreover, the “Parent ionizable lipid remaining” value in data set [2] (Table 31) is on record as 4.8 nmol/g liver. Also, in data set [3] (Table 27), the EGFP is 1.90E+07 pg/g liver.
Turning to `CCCCCCCCCCN(C(=O)CCCN(C)C)C(CCCCCCCCC)CCCCC(F)C(=O)OC(CCCCCC)CCCCCC` (stereo not shown) [Compound 121, Tridecan-7-yl 7-(N-decyl-4-(dimethylamino)butanamido)-2-fluorohexadecanoate], in data set [1] (Table 23), the “Final Product % EE” value is given as 99%, the “Final Product PDI” value amounted to 0.10 and the “Final Product Z-avg” value is reported as 77 nm. For the same molecule, the “Parent ionizable lipid remaining” value in data set [2] (Table 31) is on record as 2.1 nmol/g liver. The molecule also registered an EGFP in data set [3] (Table 27) of 3.81E+07 pg/g liver.
For `CCCCCCCCCCN(C(=O)CCCN(C)C)C(CCCCCCCCC)CCCCC(F)C(=O)OC(CCCCCCC)CCCCCCC` (stereo not shown) [Compound 122, Pentadecan-8-yl 7-(N-decyl-4-(dimethylamino)butanamido)-2-fluorohexadecanoate], in data set [1] (Table 23), the “Final Product % EE” value was 100%, the “Final Product PDI” value is listed as 0.13 and the “Final Product Z-avg” value was determined as 70 nm. Also, in data set [2] (Table 31), the “Parent ionizable lipid remaining” value worked out at 6.3 nmol/g liver. For the same molecule, in data set [3] (Table 27), the EGFP amounted to 2.35E+07 pg/g liver.
On to `CCCCCCCCCCN(C(=O)CCCN(C)C)C(CCCCCCCCC)CCCCC(F)C(=O)OC(CCCCCCCC)CCCCCCCC` (stereo not shown) [Compound 123, Heptadecan-9-yl 7-(N-decyl-4-(dimethylamino)butanamido)-2-fluorohexadecanoate], for which, in data set [1] (Table 23), the “Final Product % EE” value was found to be 99%, the “Final Product PDI” value was 0.15 and the “Final Product Z-avg” value came to 73 nm. Further, in data set [2] (Table 31), the “Parent ionizable lipid remaining” value was 10.5 nmol/g liver. In data set [3] (Table 27), this molecule registered an EGFP of 3.94E+07 pg/g liver.
